Values joined by “and” are separate entries in the source; they are usually repeats but may differ in a detail not shown here. Identical values can stand only once. Like-named read-outs stand apart in the source and are kept apart here.
Key:
MX1 = assay type: cell-based
rLCMV/GFP-P2A-NP [1] = assay type: cell-based
LCMV vRNP = LCMV vRNP (Mammarenavirus choriomeningitidis (LCMV), UniProt P14240); assay type: cell-based
ISG15 = assay type: cell-based
rLCMV/GFP-P2A-NP [2] = assay type: cell-based; remark: listed apart in the source
rLCMV/GFP-P2A-NP [3] = assay type: cell-based; remark: listed apart in the source
LCMV Z = assay type: cell-based
LASV vRNP = assay type: cell-based
A549 cells [4] = test system: A549 cells
rLCMV/GFP-P2A-NP [5] = assay: organism not typed; assay type: cell-based
rJUNV/GFP-P2A-NP [6] = assay: organism not typed; assay type: cell-based
in vitro = conditions: African green monkey
rLCMV/GFP-P2A-NP [7] = assay type: cell-based; remark: listed apart in the source
rJUNV/GFP-P2A-NP [8] = assay: organism not typed; assay type: cell-based; remark: listed apart in the source
LCMV NP RNA = assay type: cell-based
A549 cells [9] = test system: A549 cells; remark: listed apart in the source
A549 cells [10] = test system: A549 cells; remark: listed apart in the source
HEK293T cells [11] = test system: HEK293T cells
HEK293T cells [12] = test system: HEK293T cells; remark: listed apart in the source

O=C(/C=C\n1cnc(-c2cc(C(F)(F)F)cc(C(F)(F)F)c2)n1)NNc1ccccn1 [VE, verdinexor]
expression level of MX1 (MX1): reduced expression levels
EC50 (rLCMV/GFP-P2A-NP [1]): 0.07 µM
inhibition of LCMV MG activity (LCMV vRNP): potently inhibited
expression level of ISG15 (ISG15): reduced expression levels
reduction in infectivity (GFP signal) (rLCMV/GFP-P2A-NP [2]): ≥ 80%
reduction in virus peak titers (rLCMV/GFP-P2A-NP [3]): ~2 log
effect on Z budding activity (LCMV Z): significant inhibitory effect
inhibition of LASV MG activity (LASV vRNP): potently inhibited
reduction in cell viability / cytotoxicity (A549 cells [4]; human): ≤ 20%
inhibition at 0.3334 µM (rLCMV/GFP-P2A-NP [5]): 77.6%
inhibition at 1 µM (rLCMV/GFP-P2A-NP [5]): 97.05 ± 0.41%
antiviral activity against JUNV (rJUNV/GFP-P2A-NP [6]): potent antiviral activity
EC50 (rJUNV/GFP-P2A-NP [6]; A549): 0.036 µM
CC50 (in vitro): > 30 µM
effect on LCMV multiplication in MAVS-KO A549 cells (rLCMV/GFP-P2A-NP [7]): strong dose-dependent inhibitory effect
EC50 (rJUNV/GFP-P2A-NP [8]): 0.24 µM
antiviral activity against JUNV (rJUNV/GFP-P2A-NP [8]): potent antiviral activity
EC50 (rJUNV/GFP-P2A-NP [8]; Vero C1008): 0.239 µM
effect on virus RNA replication and transcription (LCMV NP RNA): inhibited to a similar degree both virus replication and transcription

CNC1=Nc2ccc(Cl)cc2C(c2ccc[nH]2)=NC1 [RO, Ro-24-7429]
EC50 (rLCMV/GFP-P2A-NP [1]; read-out: EC50): 0.889 µM and 0.89 µM
inhibition of LCMV MG activity (LCMV vRNP): significantly less efficient
CC50 (Vero E6 cells): > 30 µM
reduction in infectivity (GFP signal) (rLCMV/GFP-P2A-NP [2]): ≥ 80%
CC50 (A549 cells [9]): > 30 µM
CC50 (A549 cells [10]): > 20 µM
production of infectious virus (titers in CCS) (rLCMV/GFP-P2A-NP [3]): reduced efficacy at 1 µM compared to 5 µM
effect on Z budding activity (LCMV Z): did not affect
CC50 (HEK293T cells [11]): > 20 µM
inhibition of LASV MG activity (LASV vRNP): significantly less efficient
reduction in cell viability / cytotoxicity (A549 cells [4]): ≤ 20%
CC50 (HEK293T cells [12]): > 1 µM
antiviral activity against JUNV (rJUNV/GFP-P2A-NP [6]): less efficient
antiviral activity against JUNV (rJUNV/GFP-P2A-NP [8]): less efficient
EC50 (rJUNV/GFP-P2A-NP [8]; read-out: EC50): 15.3 µM
effect on virus RNA replication and transcription (LCMV NP RNA): inhibited to a similar degree both virus replication and transcription

O=C(/C=C\n1cnc(-c2cc(C(F)(F)F)cc(C(F)(F)F)c2)n1)NNc1cnccn1 [SE, Selinexor]
production of infectious virus (titers in CCS) (rLCMV/GFP-P2A-NP [3]): potent inhibitory effect on LCMV multiplication
